From patent US8871726B2, “C-aryl glucoside derivative, preparation method therefor, and use thereof” (Shanghai Allist Pharmaceuticals, Inc., priority 2010, dated 2014) come the findings set out here.

By IC50 is commonly meant the concentration that gives 50% inhibition.

In one experiment the test system is normal rat. Description: Effect on the urine glucose excretion of the normal rat. The class given is in vivo. The settings on record: normal SD rats, single intragastric oral administration, then glucose 2 g/kg; in comparison with the blank control, P<0.01, dosage-dependent. An excerpt: The drug effect of promoting the urine glucose excretion can be determined according to the conventional assay. One preferable evaluation assay is to detect the effect of the present compound on the urine glucose excretion of the normal rat. The assay can be conducted as follows. Thirty 7-week-old male SD rats (about 200 g) are used in the assay. The tested compound having a purity of 97.8% is formulated with 0.75% CMC-Na. […] The SD rats are acclimatized for 7 days, and then placed in the metabolic cages. The rats are fasted overnight (18 hr) under the free access to water. The basic urine samples are collected, and then thirty rats are weighed and grouped randomly into five groups, six rats per group. The rats are administered with the tested compounds or the positive control drug at low dosage, medium dosage, or high dosage. Fifteen minutes after the administration, the rats are intragastrically administrated with 50% glucose solution (2 g/kg). For ensuring a complete collection of the 24-hour urine, the rats are immediately placed in the metabolic cage after the administration of the tested compounds or the positive control drug. One hour after the administration of the glucose solution, the feeds are supplied to the rats. The urines after the administration of the tested compounds or the positive control drug are collected for 24 hours, and then the urine volumes are calculated and the urine glucose concentrations are detected.
The data are analyzed with the software SPSS 12.0, and the quantized data are expressed in “average±standard deviation”. Multiple sets of data are compared according to the analysis of variance (One-way ANOVA). P<0.05 represents statistical difference.
Thirty 7-week-old male SD rats (about 200 g) were used. The compound of Example 2 having a purity of 97.8% was chose as the present compound and formulated with 0.75% CMC-Na. […] The SD rats were acclimatized for 7 days, and then placed in the metabolic cages. The rats were fasted overnight (18 hr) under the free access to water. The basic urine samples were collected, and then thirty rats were weighed and grouped randomly into five groups, six rats per group.
Fifteen minutes after the administration, the rats were intragastrically administrated with 50% glucose solution (2 g/kg). For ensuring a complete collection of the 24-hour urine, the rats were immediately placed in the metabolic cage after the administration of the tested compounds or the positive control drug. […] The urines after the administration of the tested compounds or the positive control drug were collected for 24 hours, and then the urine volumes were calculated and the urine glucose concentrations were detected.
The data were analyzed with the software SPSS 12.0, and the quantized data were expressed in “average±standard deviation”. […]

A further experiment has as its target T1, human SGLT-1 (Homo sapiens, UniProt P13866).
T1 sequence (P13866 1-664): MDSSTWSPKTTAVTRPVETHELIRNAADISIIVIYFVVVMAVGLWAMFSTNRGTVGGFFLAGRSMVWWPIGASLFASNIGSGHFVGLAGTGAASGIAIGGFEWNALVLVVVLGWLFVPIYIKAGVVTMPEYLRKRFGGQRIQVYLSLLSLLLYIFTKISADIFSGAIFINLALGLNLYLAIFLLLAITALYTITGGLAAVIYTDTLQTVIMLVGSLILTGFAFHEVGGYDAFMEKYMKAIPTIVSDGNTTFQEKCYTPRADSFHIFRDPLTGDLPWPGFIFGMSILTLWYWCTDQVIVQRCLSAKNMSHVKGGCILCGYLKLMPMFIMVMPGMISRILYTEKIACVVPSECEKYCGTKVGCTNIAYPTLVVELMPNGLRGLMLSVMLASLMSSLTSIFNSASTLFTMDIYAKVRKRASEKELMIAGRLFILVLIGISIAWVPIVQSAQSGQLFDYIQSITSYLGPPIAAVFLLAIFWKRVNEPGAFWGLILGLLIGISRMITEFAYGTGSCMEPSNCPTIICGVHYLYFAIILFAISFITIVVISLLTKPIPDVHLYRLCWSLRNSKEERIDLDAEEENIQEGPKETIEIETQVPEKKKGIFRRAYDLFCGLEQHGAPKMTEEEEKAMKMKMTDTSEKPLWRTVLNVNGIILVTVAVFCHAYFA
Description: Inhibitory effect on human SGLT-1 (14C-methyl-a-D-glucopyranoside uptake in transfected NIH3T3 cells). Particulars: NIH3T3 cells expressing human SGLT-1; read-out: IC50 value for inhibiting the human SGLT-1. The class given is cell-based. The protocol: (§1) 0.2% gelatin was plated on a 24-well plate, and the plate was kept overnight. The plate was washed with PBS once before use. The NIH3T3 cells expressing human SGLT-1 by transfection were inoculated into the 24-well plate in 100,000 cells per well and 1 mL culture medium per well. On the third day, the culture medium was changed once, and simultaneously sodium butyrate was added thereto with a final concentration of 2 mM. The cells were washed with KRH-Na^+ (500 μL) twice, and then incubated with KRH-Na^+ (500 μL) for 30 minutes. The cells were then treated with 200 μL of KRH-Na^+ containing the compound of Example 2, and 50 μL of an uptake buffer (KRH-Na^+ plus methyl-a-D-[U-14C] glucopyranoside and 1 mM methyl-a-D-glucopyranoside). The cells were washed with 500 μL wash buffer thrice with the operation on ice, and baked overnight. The cells were lysed with 200 μL of 0.25N NaOH at 4° C. for 1 hr. The lysate was removed into an EPPENDORF tube, and centrifuged at 4° C. under 12000 g for 5 mins. […] of supernatant was placed in a 2 mL EPPENDORF tube, and 1.7 mL of scintillation cocktail was added thereto. The mixture was shaked vigorously, and then counted. The inhibition rate of the compound of Example 2 at each of concentrations on the transporting activity was calculated.
(§2) IC50 value could be determined by nonlinear curve fitting of sample activities vs. sample concentrations. […]

A further experiment deals with T2, human SGLT-2 (Homo sapiens, UniProt P31639).
T2 construct: expressed in transfected cells; host or cells: NIH3T3 cells
T2 sequence (P31639 1-672): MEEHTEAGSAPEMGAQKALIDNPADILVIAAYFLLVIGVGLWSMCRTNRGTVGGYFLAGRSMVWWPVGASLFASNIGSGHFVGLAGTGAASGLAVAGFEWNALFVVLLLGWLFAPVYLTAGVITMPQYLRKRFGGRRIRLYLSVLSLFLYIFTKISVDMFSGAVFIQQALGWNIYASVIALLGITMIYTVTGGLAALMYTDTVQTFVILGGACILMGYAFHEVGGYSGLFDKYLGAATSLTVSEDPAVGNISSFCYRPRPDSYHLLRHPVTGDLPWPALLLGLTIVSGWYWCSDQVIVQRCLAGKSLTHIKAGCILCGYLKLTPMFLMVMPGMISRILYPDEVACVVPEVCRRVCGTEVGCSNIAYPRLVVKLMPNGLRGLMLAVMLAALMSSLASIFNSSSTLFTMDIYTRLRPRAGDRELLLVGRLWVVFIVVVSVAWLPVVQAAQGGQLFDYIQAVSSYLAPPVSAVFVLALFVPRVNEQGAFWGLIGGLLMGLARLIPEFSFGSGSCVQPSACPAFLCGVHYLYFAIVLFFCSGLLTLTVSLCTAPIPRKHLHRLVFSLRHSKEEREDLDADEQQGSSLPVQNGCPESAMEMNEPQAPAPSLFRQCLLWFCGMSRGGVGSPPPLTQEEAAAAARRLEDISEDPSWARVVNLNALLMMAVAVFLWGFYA
Description: Inhibitory effect on human SGLT-2 (14C-methyl-a-D-glucopyranoside uptake in transfected NIH3T3 cells). The class given is cell-based. Particulars: NIH3T3 cells expressing human SGLT-2; read-out: IC50 value for inhibiting the human SGLT-2. How it is done: as §1, with “SGLT-2” for “SGLT-1”
as §2

For the molecule `CS[C@H]1O[C@@H](c2ccc(C)c(Cc3ccc(-c4ccc(F)cc4)s3)c2)[C@H](O)[C@@H](O)[C@@H]1O` [Example 2, (2S,3R,4R,5S,6R)-2-[3-((5-(4-fluorophenyl)thienyl)-2-methylene)-4-methylphenyl)-6-methylthio-tetrahydropyran-3,4,5-triol], in the experiment with normal rat, the “24-hour urine glucose masses” value was “remarkably increased” and the 24-hour urine volumes result is given as “remarkably increased”. Further, the concentration for half-maximal inhibition (IC50) on human SGLT-1 was 28.7 µM. At human SGLT-2, the IC50 is 0.172 nM.

As for `CCOc1ccc(Cc2cc([C@@H]3O[C@H](CO)[C@@H](O)[C@H](O)[C@H]3O)ccc2Cl)cc1` [Dapagliflozin, reference compound], in the experiment on normal rat, the “24-hour urine glucose masses” value was “remarkably increased” and the 24-hour urine volumes entry is recorded as “remarkably increased”.
